What all share (assay type): biochemical
For one assay, the target named is Pim1 kinase (Homo sapiens, UniProt P11309). Put plainly: Pim1 ATP depletion assay.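 On all read-outs here: Luciferase-luciferin luminescence readout of residual ATP after PIM1 transfers phosphate to a peptide substrate, 40 µM ATP added, reaction run to roughly half ATP consumption.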 The note with it: for IC50: read-out: IC50 (μM) PIM1.
The target in a further assay is Pim2 kinase (Homo sapiens, UniProt Q9P1W9). Put plainly: Pim2 ATP depletion assay.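 On all read-outs here: Luciferase-based luminescent readout of ATP remaining after PIM2 phosphorylates a BAD peptide, final 5 nM enzyme, 4 µM ATP, 10 µM peptide, 2.5% DMSO, run to roughly half ATP consumption.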 The note with it: for IC50: read-out: IC50 (μM) PIM2; for pIC50: read-out: PIM2 IC50.
The next assay addresses Pim3 kinase (Homo sapiens, UniProt Q86V86). Put plainly: Pim3 ATP depletion assay. The note with it: for IC50: read-out: IC50 (μM) PIM3; for pIC50: read-out: PIM3 IC50.
For assay [1], the target named is T1, human full length PKCE enzyme (Homo sapiens, UniProt Q02156).
T1 construct: human full length PKCE enzyme purchased from InVitrogen; purchased InVitrogen
T1 sequence (Q02156 1-737): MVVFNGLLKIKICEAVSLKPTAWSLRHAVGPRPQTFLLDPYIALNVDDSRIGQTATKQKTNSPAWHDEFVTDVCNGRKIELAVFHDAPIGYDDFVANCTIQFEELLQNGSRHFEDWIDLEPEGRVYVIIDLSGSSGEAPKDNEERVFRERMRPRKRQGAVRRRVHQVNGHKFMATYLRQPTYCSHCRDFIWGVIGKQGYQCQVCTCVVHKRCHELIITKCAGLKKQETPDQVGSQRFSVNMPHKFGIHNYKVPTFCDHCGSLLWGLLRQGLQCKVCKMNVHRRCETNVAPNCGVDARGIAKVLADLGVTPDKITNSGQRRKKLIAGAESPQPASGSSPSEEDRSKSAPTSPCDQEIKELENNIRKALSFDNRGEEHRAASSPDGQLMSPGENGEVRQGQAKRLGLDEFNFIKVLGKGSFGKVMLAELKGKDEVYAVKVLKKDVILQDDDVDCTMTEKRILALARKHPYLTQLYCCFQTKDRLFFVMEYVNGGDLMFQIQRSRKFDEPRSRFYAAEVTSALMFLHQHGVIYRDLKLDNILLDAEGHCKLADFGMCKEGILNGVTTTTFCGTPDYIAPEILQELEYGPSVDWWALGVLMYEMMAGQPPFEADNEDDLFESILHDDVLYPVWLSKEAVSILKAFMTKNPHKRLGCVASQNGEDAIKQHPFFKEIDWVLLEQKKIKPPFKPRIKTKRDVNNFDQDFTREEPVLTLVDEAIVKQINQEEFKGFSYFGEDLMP
Nature of the assay: In vitro PKCE assay. The note with it: 10 nM enzyme, 40 uM peptide substrate, 20 uM ATP, KinaseGlo Plus readout; read-out: PKCε IC50.

[2] abbreviates: Pim1 ATP depletion assay, read-out: PIM1 IC50.

pIC50: −log10 of the molar value. Like-named read-outs stand apart in the source and are kept apart here. Some results are limits rather than exact numbers.

The values below come from US20140249135A1, “PIM KINASE INHIBITORS AND METHODS OF THEIR USE” (NOVARTIS AG, priority 2007, published 2014).

As usually defined, the IC50 is the concentration that inhibits the measured activity by half. As a reminder, the pIC50 is the IC50 on a negative log10 scale, so that one unit is a factor of ten.

Pim2 kinase, sequence (Q9P1W9 whole entry): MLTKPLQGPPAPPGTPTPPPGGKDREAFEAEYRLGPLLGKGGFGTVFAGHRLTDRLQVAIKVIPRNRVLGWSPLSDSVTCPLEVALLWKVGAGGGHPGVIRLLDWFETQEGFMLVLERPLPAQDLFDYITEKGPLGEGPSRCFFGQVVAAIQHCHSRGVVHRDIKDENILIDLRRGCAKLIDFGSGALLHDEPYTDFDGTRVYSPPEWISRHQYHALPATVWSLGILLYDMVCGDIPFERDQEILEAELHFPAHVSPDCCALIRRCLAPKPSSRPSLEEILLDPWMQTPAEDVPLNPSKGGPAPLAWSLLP
Pim1 kinase, sequence (P11309 whole entry): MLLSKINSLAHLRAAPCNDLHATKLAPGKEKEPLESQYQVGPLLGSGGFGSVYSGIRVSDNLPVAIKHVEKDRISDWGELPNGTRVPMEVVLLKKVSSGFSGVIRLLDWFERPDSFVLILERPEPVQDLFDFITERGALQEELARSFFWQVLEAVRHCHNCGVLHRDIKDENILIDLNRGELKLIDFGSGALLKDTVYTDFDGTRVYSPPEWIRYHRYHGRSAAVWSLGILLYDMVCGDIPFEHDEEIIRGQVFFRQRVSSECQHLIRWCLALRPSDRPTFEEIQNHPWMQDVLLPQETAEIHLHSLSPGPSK

On to `Nc1nccnc1C(=O)Nc1[nH]c(=O)ncc1N1CCC(C(F)(F)F)CC1` [Example 152, 3-amino-N-{2-oxo-5-[4-(trifluoromethyl)piperidin-1-yl]-2,3-dihydropyrimidin-4-yl}-pyrazine-2-carboxamide], for which the IC50 at Pim1 kinase (Pim1 ATP depletion assay), on Pim2 kinase and at Pim3 kinase was less than 1 µM throughout. Moreover, in assay [1], the pIC50 is greater than 6.00.
Turning to `Nc1ncc(Br)nc1C(=O)Nc1[nH]c(=O)ncc1N1CCC(C(F)(F)F)CC1` [Example 153, 3-amino-6-bromo-N-{2-oxo-5-[4-(trifluoromethyl)piperidin-1-yl]-2,3-dihydropyrimidin-4-yl}-pyrazine-2-carboxamide], the IC50 at Pim1 kinase (Pim1 ATP depletion assay), at Pim2 kinase and at Pim3 kinase was less than 1 µM in each case. In addition, in assay [1], the pIC50 was less than 4.60.
For the compound `Nc1nccnc1C(=O)Nc1[nH]c(=O)ncc1N1CCCC(F)C1` (stereo not drawn) [Example 154, 3-amino-N-[5-(3-fluoro-piperidin-1-yl)-2-oxo-2,3-dihydropyrimidin-4-yl]pyrazine-2-carboxamide], the IC50 on Pim1 kinase (Pim1 ATP depletion assay), on Pim2 kinase and at Pim3 kinase was less than 1 µM each time. For the same compound, the pIC50 in assay [1] is greater than 6.00.
Regarding `Nc1nccnc1C(=O)Nc1[nH]c(=O)ncc1N1CCC(F)(F)CC1` [Example 156, 3-amino-N-[5-(4,4-difluoro-piperidin-1-yl)-2-oxo-2,3-dihydropyrimidin-4-yl]pyrazine-2-carboxamide], the half-inhibitory concentration (IC50) at Pim1 kinase (Pim1 ATP depletion assay), at Pim2 kinase and on Pim3 kinase was less than 1 µM throughout. Besides, the pIC50 in assay [1] is 5.00 to 6.00.
As for `N#Cc1ccc(N2CCCCC2)c(NC(=O)c2nccnc2N)c1` [Example 171, 3-amino-N-(5-cyano-2-(piperidin-1-yl)phenyl)pyrazine-2-carboxamide], the IC50 at Pim1 kinase (Pim1 ATP depletion assay) was less than 1 µM; at Pim2 kinase it was 1 to 10 µM; on Pim3 kinase, less than 1 µM. Also, the pIC50 in assay [1] was 4.60 to 5.00.
For the compound `NCCC(=O)N1CCN(c2ccncc2NC(=O)c2nc(Br)cnc2N)CC1` [Example 178, 3-amino-N-{4-[4-(3-amino-propanoyl)piperazin-1-yl]-pyridin-3-yl}-6-bromopyrazine-2-carboxamide], the IC50 on Pim1 kinase (Pim1 ATP depletion assay), on Pim2 kinase and at Pim3 kinase was less than 1 µM each time. Besides, in assay [1], the pIC50 is greater than 6.00.
Turning to `NCC(=O)N1CCN(c2ccncc2NC(=O)c2nccnc2N)CC1` [Example 189, 3-amino-N-{4-[4-(amino-acetyl)piperazin-1-yl]pyridin-3-yl}pyrazine-2-carboxamide], the pIC50 (against Pim1 kinase; in assay [1]) was greater than 6.00 each time. The concentration for half-maximal inhibition (IC50) on Pim2 kinase was 1 to 10 µM; on Pim3 kinase, less than 1 µM.
Take `Nc1nccnc1C(=O)Nc1cnccc1N1CCNCC1` [Example 191, 3-amino-N-(4-piperazin-1-yl-pyridin-3-yl)pyrazine-2-carboxamide]: the pIC50 (against Pim1 kinase; in assay [1]) was greater than 6.00 each time. Besides, the figures for the IC50 at Pim2 kinase and on Pim3 kinase were greater than 25 µM and 1 to 10 µM, respectively.
As to `NC[C@H]1CCCN1c1ccncc1NC(=O)c1nccnc1N` [Example 192, 3-amino-N-{4-[(2R)-2-(amino-methyl)pyrrolidin-1-yl]pyridin-3-yl}pyrazine-2-carboxamide], the IC50 on Pim1 kinase (Pim1 ATP depletion assay), on Pim2 kinase and on Pim3 kinase was greater than 25 µM throughout. Besides, the negative logarithm of the IC50 (pIC50) in assay [1] is less than 4.60.
For the compound `NCCOc1ccncc1NC(=O)c1nccnc1N` [Example 194, 3-amino-N-[4-(2-amino-ethoxy)pyridin-3-yl]pyrazine-2-carboxamide], the IC50 on Pim1 kinase (Pim1 ATP depletion assay), at Pim2 kinase and at Pim3 kinase was greater than 25 µM throughout. Besides, the pIC50 in assay [1] is less than 4.60.
Take `NCC1CCCN(c2cnc(=O)[nH]c2NC(=O)c2nc(Br)cnc2N)C1` (stereo not drawn) [Example 240, 3-amino-N-{5-[3-(aminomethyl)-piperidin-1-yl]-2-oxo-2,3-dihydropyrimidin-4-yl}-6-bromopyrazine-2-carboxamide]: the IC50 at Pim1 kinase (Pim1 ATP depletion assay), on Pim2 kinase and at Pim3 kinase was less than 1 µM in each case. Further, in assay [1], the pIC50 was greater than 6.00.
With `NCCC(=O)N1CCN(c2cnc(=O)[nH]c2NC(=O)c2nc(Br)cnc2N)CC1` [Example 241, 3-amino-N-{5-[4-(3-amino-propanoyl)piperazin-1-yl]-2-oxo-2,3-dihydropyrimidin-4-yl}-6-bromopyrazine-2-carboxamide], the IC50 at Pim1 kinase (Pim1 ATP depletion assay), at Pim2 kinase and on Pim3 kinase was less than 1 µM in each case. In addition, in assay [1], the pIC50 was 5.00 to 6.00.
On to `Nc1cccnc1C(=O)Nc1[nH]c(=O)ncc1N1CCCC(N)C1` (stereo not drawn) [Example 242, 3-amino-N-[5-(3-aminopiperidin-1-yl)-2-oxo-2,3-dihydro-pyrimidin-4-yl]pyridine-2-carboxamide], for which the IC50 at Pim1 kinase (Pim1 ATP depletion assay), on Pim2 kinase and at Pim3 kinase was less than 1 µM in each case. For the same compound, the pIC50 in assay [1] is less than 4.60.
In the case of `Nc1cnc(C(=O)Nc2cnccc2N2CCCCC2)c(N)n1` [Example 312, 3,5-diamino-N-(4-(piperidin-1-yl)pyridin-3-yl)pyrazine-2-carboxamide], the concentration for half-maximal inhibition (IC50) was less than 1 µM on Pim1 kinase (Pim1 ATP depletion assay), 1 to 10 µM on Pim2 kinase and less than 1 µM at Pim3 kinase. Moreover, the pIC50 in assay [1] was 4.60 to 5.00.
Turning to `Cc1ccccc1-c1cnc(N)c(C(=O)Nc2cnccc2N2CCCC(N)C2)n1` (stereo not drawn) [Example 351, 3-amino-6-o-tolyl-pyrazine-2-carboxylic acid (3-amino-3,4,5,6-tetrahydro-2H-[1,4′]bi-pyridinyl-3′-yl)-amide], the IC50 at Pim1 kinase (Pim1 ATP depletion assay), at Pim2 kinase and on Pim3 kinase was less than 1 µM in each case. In addition, the negative-log IC50 (pIC50) in assay [1] was greater than 6.00.
On to `Cc1cnc(N)c(C(=O)Nc2cnccc2N2CCCC(N)C2)n1` (stereo not drawn) [Example 371, 3-amino-6-methyl-pyrazine-2-carboxylic acid (3-amino-3,4,5,6-tetrahydro-2H-[1,4′]bi-pyridinyl-3′-yl)-amide], for which the IC50 at Pim1 kinase (Pim1 ATP depletion assay), on Pim2 kinase and on Pim3 kinase was less than 1 µM throughout. Also, in assay [1], the pIC50 is 5.00 to 6.00.
For the compound `N#Cc1ccccc1-c1cnc(N)c(C(=O)Nc2[nH]c(=O)ncc2N2CCCC(N)C2)n1` (stereo not drawn) [Example 403, 3-amino-6-(2-cyano-phenyl)-pyrazine-2-carboxylic acid [5-(3-amino-piperidin-1-yl)-2-oxo-2,3-dihydro-pyrimidin-4-yl]-amide], the IC50 at Pim1 kinase (Pim1 ATP depletion assay), on Pim2 kinase and on Pim3 kinase was less than 1 µM throughout. The pIC50 in assay [1] was greater than 6.00.
Take `Nc1ncc(-c2ccccc2C(F)(F)F)nc1C(=O)Nc1[nH]c(=O)ncc1N1CCCC(N)C1` (stereo not drawn) [Example 404, 3-amino-6-(2-trifluoromethyl-phenyl)-pyrazine-2-carboxylic acid [5-(3-amino-piperidin-1-yl)-2-oxo-2,3-dihydro-pyrimidin-4-yl]-amide]: the IC50 at Pim1 kinase (Pim1 ATP depletion assay), at Pim2 kinase and on Pim3 kinase was less than 1 µM each time. In assay [1], the pIC50 is 5.00 to 6.00.
`Nc1ncc(-c2ccccc2OC(F)(F)F)nc1C(=O)Nc1[nH]c(=O)ncc1N1CCCC(N)C1` (stereo not drawn) [Example 405, 3-amino-6-(2-trifluoro-methoxy-phenyl)-pyrazine-2-carboxylic acid [5-(3-amino-piperidin-1-yl)-2-oxo-2,3-dihydro-pyrimidin-4-yl]-amide]: the IC50 on Pim1 kinase (Pim1 ATP depletion assay), at Pim2 kinase and at Pim3 kinase was less than 1 µM in each case. Also, the negative logarithm of the IC50 (pIC50) in assay [1] was 4.60 to 5.00.
In the case of `Nc1ncc(-c2ccccc2C(F)(F)F)nc1C(=O)Nc1[nH]c(=O)ncc1N1CCCCC1` [Example 593, 3-amino-6-(2-trifluoromethyl-phenyl)-pyrazine-2-carboxylic acid (2-oxo-5-piperidin-1-yl-2,3-dihydro-pyrimidin-4-yl)-amide], the negative logarithm of the IC50 (pIC50) at Pim1 kinase (setting [2]) was greater than 6.00; at Pim2 kinase, greater than 6.00; at Pim3 kinase, greater than 6.00; in assay [1] it was less than 4.60.
`COc1ccccc1-c1cnc(N)c(C(=O)Nc2[nH]c(=O)ncc2N2CCCCC2)n1` [Example 594, 3-amino-6-(2-methoxy-phenyl)-pyrazine-2-carboxylic acid (2-oxo-5-piperidin-1-yl-2,3-dihydro-pyrimidin-4-yl)-amide]: the pIC50 was greater than 6.00 at Pim1 kinase (setting [2]), greater than 6.00 at Pim2 kinase, greater than 6.00 on Pim3 kinase and less than 4.60 in assay [1].
